Reference: publication PMC9361468 (RSC Advances, 2022)
Where two headings read alike, the source gives them in different places.

Assays:
[1] = physchem
[2] = Experimental pKa, common substituted piperazines, mean ± SD of 3 experiments
[3] = Experimental pKa, PROTAC precursors, mean ± SD of 3 experiments

| SMILES | % protonation state at pH = 7.5, NI: not-ionized state (PROTAC precursors) | % protonation state at pH = 7.5, P: single protonation state (PROTAC precursors) | pKa [1] | further results |
| --- | --- | --- | --- | --- |
| CN1CCN(C)CC1 [1,4-Dimethylpiperazine, reference compound] | – | – | – | % protonation state at pH = 7.5, DP: double protonation state (substituted piperazines): DP: 0.02%; % protonation state at pH = 7.5, NI: not-ionized state (substituted piperazines): NI: 21.59%; % protonation state at pH = 7.5, P: single protonation state (substituted piperazines): P: 78.38%; pKa [1, 2]: ~8 |
| CCN1CCNCC1 [1-Ethylpiperazine, reference compound] | – | – | – | % protonation state at pH = 7.5, DP: double protonation state (substituted piperazines): DP: 2.18%; % protonation state at pH = 7.5, NI: not-ionized state (substituted piperazines): NI: 0.34%; % protonation state at pH = 7.5, P: single protonation state (substituted piperazines): P: 97.48%; pKa [1, 2]: 5.04 ± 0.03 |
| COC(=O)CCC(=O)N1CCN(CCNC(=O)Cc2c(C)n(C(=O)c3ccc(Cl)cc3)c3ccc(OC)cc23)CC1 [Compound 16] | NI: 98.73% | P: 1.27% | – | pKa [1, 3]: 5.61 |
| O=C(c1cc(Cc2n[nH]c(=O)c3ccccc23)ccc1F)N1CCN(Cc2ccccc2)CC1 [Compound 7] | NI: 97.07% | P: 2.93% | – | pKa [1, 3]: 5.98 ± 0.01 |
| Cc1sc2c(c1C)C(c1ccc(Cl)cc1)=N[C@@H](CC(=O)N1CCN(C)CC1)c1nnc(C)n1-2 [Compound 2] | NI: 69.61% | P: 30.39% | 7.14 ± 0.02 | – |
| CC(=O)CN1CCN(C(=O)c2ccc3c(c2)nc(Nc2cccc(Cl)c2)c2ccncc23)CC1 [Compound 8] | NI: 99.71% | P: 0.29% | – | – |
| COc1ccc2c(c1)c(CC(=O)N1CCN(CCC(C)=O)CC1)c(C)n2C(=O)c1ccc(Cl)cc1 [Compound 12] | NI: 97.07% | P: 2.93% | 5.98 ± 0.05 | – |
| COc1ccc2c(c1)c(CC(=O)N1CCN(CCC(=O)N[C@H](C(=O)N3C[C@H](O)C[C@H]3C(=O)N[C@@H](C)c3ccc(-c4scnc4C)cc3)C(C)(C)C)CC1)c(C)n2C(=O)c1ccc(Cl)cc1 [PROTAC-6] | – | – | – | % protonation state at pH = 7.5, NI: not-ionized state (PROTACs): NI: 98.33% |
| CC(=O)N1CCNCC1 [1-Acetyl-piperazine, reference compound] | – | – | – | % protonation state at pH = 7.5, NI: not-ionized state (substituted piperazines): NI: 21.99%; % protonation state at pH = 7.5, P: single protonation state (substituted piperazines): P: 78.01%; pKa [1, 2]: 8.05 ± 0.02 |
| CCOC(=O)CN1CCN(C(=O)Cc2c(C)n(C(=O)c3ccc(Cl)cc3)c3ccc(OC)cc23)CC1 [Compound 10] | NI: 99.9% | – | 4.5 ± 0.06 | – |
| C#CCN1CCN(C(=O)C[C@@H]2N=C(c3ccc(Cl)cc3)c3c(sc(C)c3C)-n3c(C)nnc32)CC1 [Compound 5] | NI: 99.74% | P: 0.26% | 4.91 ± 0.14 | – |
| C1CNCCN1 [Piperazine, reference compound] | – | – | – | % protonation state at pH = 7.5, DP: double protonation state: DP: 0.86%; % protonation state at pH = 7.5, NI: not-ionized state: NI: 0.67%; % protonation state at pH = 7.5, P: single protonation state: P: 98.48% |
| CN1CCNCC1 [1-Methylpiperazine, reference compound] | – | – | – | % protonation state at pH = 7.5, DP: double protonation state (substituted piperazines): DP: 2.13%; % protonation state at pH = 7.5, NI: not-ionized state (substituted piperazines): NI: 0.32%; % protonation state at pH = 7.5, P: single protonation state (substituted piperazines): P: 97.55%; pKa [1, 2]: 9.16 |
| COc1ccc2c(c1)c(CC(=O)N1CCN(CCCC(C)=O)CC1)c(C)n2C(=O)c1ccc(Cl)cc1 [Compound 13] | NI: 84.90% | P: 15.09% | 6.75 ± 0.03 | – |
| CC(=O)N1CCN(C)CC1 [1-Acetyl-4-methylpiperazine, reference compound] | – | – | – | % protonation state at pH = 7.5, NI: not-ionized state (substituted piperazines): NI: 73.36%; % protonation state at pH = 7.5, P: single protonation state (substituted piperazines): P: 26.64%; % protonation state at pH = 7.5, NI: not-ionized state (substituted piperazines, listed as 1-acetyl-4-methylpiperazine): 73.4%; pKa [1, 2]: 7.06 |
| COc1ccc2c(c1)c(CC(=O)N1CCN(CCOCCO)CC1)c(C)n2C(=O)c1ccc(Cl)cc1 [Compound 17] | NI: 84.90% | P: 15.10% | 6.75 ± 0.14 | – |
| COc1ccc2c(c1)c(CC(=O)N1CCN(CC(C)=O)CC1)c(C)n2C(=O)c1ccc(Cl)cc1 [Compound 9] | – | P: 3.83% | 5.35 ± 0.04 | – |
| COc1ccc2c(c1)c(CC(=O)N1CCN(C)CC1)c(C)n2C(=O)c1ccc(Cl)cc1 [Compound 4] | NI: 78.79% | P: 21.20% | 6.93 ± 0.03 | – |
| COc1ccc2c(c1)c(CC(=O)N1CCN(CCOCCOCC(=O)N[C@H](C(=O)N3C[C@H](O)C[C@H]3C(=O)N[C@@H](C)c3ccc(-c4scnc4C)cc3)C(C)(C)C)CC1)c(C)n2C(=O)c1ccc(Cl)cc1 [PROTAC-10] | – | – | – | % protonation state at pH = 7.5, NI: not-ionized state (PROTACs): NI: 94.44% |
| COc1ccc2c(c1)c(CC(=O)NCCCN1CCN(CCCNC(=O)CCC(=O)N[C@H](C(=O)N3C[C@H](O)C[C@H]3C(=O)N[C@@H](C)c3ccc(-c4scnc4C)cc3)C(C)(C)C)CC1)c(C)n2C(=O)c1ccc(Cl)cc1 [PROTAC-8] | – | – | – | % protonation state at pH = 7.5, DP: double protonation state (PROTACs): DP: 0.02%; % protonation state at pH = 7.5, NI: not-ionized state (PROTACs): NI: 32.86%; pKa ([1]; Experimental pKa, PROTACs, mean ± SD of 3 experiments): 3.94 |
| COC(=O)CCCCN1CCN(C(=O)Cc2c(C)n(C(=O)c3ccc(Cl)cc3)c3ccc(OC)cc23)CC1 [Compound 14] | NI: 72.91% | – | 7.07 ± 0.05 | – |
| COC(=O)CCCCCCN1CCN(C(=O)Cc2c(C)n(C(=O)c3ccc(Cl)cc3)c3ccc(OC)cc23)CC1 [Compound 15] | NI: 55.16% | – | 7.41 ± 0.08 | – |
